Assay results as given in patent US20230087844A1, “USE OF N2-QUINCLINE OR ISOQUINOLINE SUBSTITUTED PURINE DERIVATIVES IN CANCER TREATMENT” (SHANGHAI HUAYU BIOTECHNOLOGY CO., LTD., priority 2020, published 2023).
Marks after values point to notes of the source that are not given here.

Columns and labels:
MV-4-11 cells [1] = assay: MV-4-11 AML xenograft in mice (Example 7); type: in vivo, BALB-cA nude mice; conditions: D0-20; for Complete remission: number of mice, N 6
Experimental: Mice body weights and tumor sizes were measured twice a week. The tumor volume, T/C and TGI (Tumor growth inhibition=(average tumor volume in vehicle group-average tumor volume in administration group)/average tumor volume in vehicle group ×100%) were calculated. Mice were sacrificed on Day 21.

[2] = test system: Colon26 murine colon cancer cells; assay: Colon26 colon cancer growth in mice; type: in vivo, F1 mice; conditions: for TGI / Tumor weight: Day 8
Experimental: F1 mice, 18-22 g, purchased from Shanghai Bi-Kai Laboratory Animal Co., Ltd, were subcutaneously inoculated with Colon26 murine colon cancer cells (from Cell Bank, Chinese Academy of Sciences) at the right axilla. […] Tumor growth inhibition (TGI) was calculated.

H69 = assay: Tumor cell death by MTT, H69; type: cell-based, human; conditions: 10 μM
Experimental: (§1) The in vitro inhibitory effect of Compound A alone or in combination with a PARP inhibitor on tumor cell growth was tested using human small cell lung cancer (SCLC) cell lines, including H69 (ATCC® HTB-119™), H526 (ATCC® CRL-5811™) and H446 (TCHu196, National Collection of Authenticated Cell Cultures).
(§2) Briefly, the cells were seeded into a 96-well dish with RPMI-1640 (10-040-CV, Coming cellgro) containing 10% fetal bovine serum (10270-106, GIBCO), 1% penicillin and 1% streptomycin (BaSalMedia, S110JV), at an initial density of 3×10^3 cells per well ([…]), and cultured at a 37° C., 5% CO2 humidified incubator for 24 hours. Then, the culture media were added with Compound A (final concentration at 20 nM), olaparib (APEXBIO, A4154, a PARP inhibitor, final concentration at 10 μM), Compound A + olaparib (final concentrations at20 nM and 10 μM), or PBS (vehicle), respectively, and the cells were cultured for 48 hours. Then, cell viability was determined by MTT. The test was done in triplicate.
(§3) Cell death rate was calculated by the following formula.
(§4) Cell death rate=[1−(ODtest-ODvehicle)]×100%
(§5) Cell death rates were analyzed using student's t-test, and group differences were deemed statistically significant when the p-value was lower than 0.05. Zheng-Jun Jin's Q value was calculated using the formula Q=EA+B/(EA+EB-EA×EB) to assess the combined effect of Compound A and the PARP inhibitor, wherein EA+B, EA, and EB referred to the cell death rates caused by the combined treatment, Compound A treatment and PARP inhibitor treatment, respectively. A Q value higher than 1.15 meant a synergistic […] effect.
(§6) Another PARP inhibitor, rucaparib (APEXBIO, A4156), was tested alone or with Compound A for inhibitory effect on tumor cell growth, following the protocol of Example 9.

H526 = assay: Tumor cell death by MTT, H526; type: cell-based, human; conditions: 10 μM
Experimental: as §1, §2, §3, §4, §5, §6

H446 = assay: Tumor cell death by MTT, H446; type: cell-based, human; conditions: 10 μM
Experimental: as §1, §2, §3, §4, §5, §6

[3] = test system: SGC-7901 human gastric cancer cells; assay: SGC-7901 gastric cancer xenograft in mice; conditions: 5 mg/kg I.P., D0, 6
Experimental: Mice body weights and tumor sizes were measured 2 to 3 times a week. The tumor volume (V) was calculated as (length× width^2)/2. T/C (%) was calculated as (T-T0)/(C-C0)×100, wherein T and C represented the tumor volumes in the administration group and the vehicle group respectively at the end of the experiment, while T0 and C0 represented the tumor volumes in the administration group and the vehicle group respectively at the beginning of the experiment. And RTV was calculated as (Tumor volume at Day N/Tumor volume at Day 0).
BALB/cA-nude mice, 5-6 weeks old, purchased from Shanghai SLAC Laboratory Animal Co., Ltd, were subcutaneously inoculated with SGC-7901 human gastric cancer cells (from Cell Bank, Chinese Academy of Sciences).
(§7) Mice body weights and tumor sizes were measured 2 to 3 times a week. The tumor volume, T/C and RTV were calculated as described above. Mice were sacrificed on Day 18.

[4] = test system: A549 human non-small cell lung cancer cells; assay: A549 non-small cell lung cancer xenograft in mice; conditions: 5 mg/kg I.P., D0, 3
Experimental: Mice body weights and tumor sizes were measured 2 to 3 times a week. The tumor volume (V) was calculated as (length× width^2)/2. T/C (%) was calculated as (T-T0)/(C-C0)×100, wherein T and C represented the tumor volumes in the administration group and the vehicle group respectively at the end of the experiment, while T0 and C0 represented the tumor volumes in the administration group and the vehicle group respectively at the beginning of the experiment. And RTV was calculated as (Tumor volume at Day N/Tumor volume at Day 0). Mice were sacrificed on Day-14.
BALB/cA-nude mice, 5-6 weeks old, purchased from Shanghai SLAC Laboratory Animal Co., Ltd, were subcutaneously inoculated with A549 human non-small cell lung cancer cells (from ATCC).
as §7

[5] = test system: S180 murine sarcoma cancer cells; assay: S180 sarcoma growth in mice; conditions: 30 mg/kg I.P., D1-7
Experimental: On Day 8, the mice were weighed and sacrificed, and the tumors were collected and weighed.
Tumor growth inhibition (TGI) was calculated by the following formula. Tumor growth inhibition=(average tumor weight in vehicle group-average tumor weight in administration group)/average tumor weight in vehicle group×100%

MV-4-11 cells [6] = assay: MV-4-11 AML xenograft in mice, combination with daunorubicin (Example 8); type: in vivo, BALB-cA nude mice; conditions: 2 mg/kg I.V., D0-10
Experimental: Mice body weights and tumor sizes were measured twice a week. The tumor volume, T/C and TGI (Tumor growth inhibition=(average tumor volume in vehicle group-average tumor volume in administration group)/average tumor volume in vehicle group ×100%) were calculated. Mice were sacrificed on Day 21. Female BALB-cA nude mice, 6-7 weeks old, purchased from Shanghai Ling-chang Biotech Co., Ltd, were subcutaneously inoculated with MV-4-11 cells (from ATCC). […] Mice body weights and tumor sizes were measured twice a week. The tumor volume, T/C and tumor volume based TGI were calculated as described above. Mice were sacrificed on Day 11.

[7] = test system: Ls-174t human colon cancer cells; assay: Ls-174t colon cancer xenograft in mice; type: in vivo, BALB/cA-nude mice; conditions: 153 mg/kg I.P., D0-4, 7-11
Text: Mice were sacrificed on Day-14.

CC[C@H](Nc1ncnc2[nH]cnc12)c1nc2cccc(F)c2c(=O)n1-c1ccccc1 [CAL 101, reference compound]
T/C (%) D21 (MV-4-11 cells [1]; 90 mg/kg P.O.): 50% | TGI (%) D21 (MV-4-11 cells [1]; 90 mg/kg P.O.): 50% | Tumor volume D0 (MV-4-11 cells [1]; 90 mg/kg P.O.): 79.6 ± 3.1 mm^3 | Tumor volume D21 (MV-4-11 cells [1]; 90 mg/kg P.O.): 442.2 ± 93.8 mm^3 | Complete remission (MV-4-11 cells [1]; 90 mg/kg P.O.): 0 | T/C (%) D21 (MV-4-11 cells [1]; 180 mg/kg P.O.): 39% | TGI (%) D21 (MV-4-11 cells [1]; 180 mg/kg P.O.): 61% | Tumor volume D0 (MV-4-11 cells [1]; 180 mg/kg P.O.): 78.9 ± 1.9 mm^3 | Tumor volume D21 (MV-4-11 cells [1]; 180 mg/kg P.O.): 361.7 ± 93.8 mm^3 | Complete remission (MV-4-11 cells [1]; 180 mg/kg P.O.): 0

Nc1ccn([C@@H]2O[C@H](CO)[C@@H](O)C2(F)F)c(=O)n1 [Gemcitabine, gemcitabine]
Body weight (without tumor) at D8 ([2]; 10 mg/kg I.V., D1): 22.31 g | TGI ([2]; 10 mg/kg I.V., D1): 57.51% | Tumor weight ([2]; 10 mg/kg I.V., D1): 0.86 g | Body weight (without tumor) at D8 ([2]; 20 mg/kg IV, D1): 22.35 g | TGI ([2]; 20 mg/kg IV, D1): 81.53% | Tumor weight ([2]; 20 mg/kg IV, D1): 0.38 g

O=C(c1cc(Cc2n[nH]c(=O)c3ccccc23)ccc1F)N1CCN(C(=O)C2CC2)CC1 [Olaparib, olaparib, reference compound]
Cell Death Rate/% 1 (H69; 48 hours, Table 10): 6% | Cell Death Rate/% 2 (H69; 48 hours, Table 10): 6.25% | Cell Death Rate/% 3 (H69; 48 hours, Table 10): 6.54% | Cell Death Rate/% mean (H69; 48 hours, Table 10): 6.26% | Cell Death Rate/% 1 (H526; 48 hours, Table 10): 5.25% | Cell Death Rate/% 2 (H526; 48 hours, Table 10): 4.92% | Cell Death Rate/% 3 (H526; 48 hours, Table 10): 5.13% | Cell Death Rate/% mean (H526; 48 hours, Table 10): 5.10% | Cell Death Rate/% 1 (H446; 48 hours, Table 10): 12.01% | Cell Death Rate/% 2 (H446; 48 hours, Table 10): 12.55% | Cell Death Rate/% 3 (H446; 48 hours, Table 10): 12.24% | Cell Death Rate/% mean (H446; 48 hours, Table 10): 12.27%

N.N.[Cl][Pt][Cl] [Cisplatin, cisplatin, reference compound]
Body weight (with tumor) D0 [3]: 18.4 g | Body weight (with tumor) D18 [3]: 16.0 g | RTV at D18 [3]: 2.85 ± 1.52 | Tumor volume D0 [3]: 127 ± 24 mm^3 | Tumor volume D18 [3]: 366 ± 201 mm^3 | T/C ([3]; D18): 34.9* % | Body weight (with tumor) D0 [4]: 16.7 g | Body weight (with tumor) D18 [4]: 15.3 g | RTV at D18 [4]: 8.89 ± 5.39 | Tumor volume D0 [4]: 110 ± 12 mm^3 | Tumor volume D18 [4]: 944 ± 536 mm^3 | T/C ([4]; D18): 33.7* %

O=P1(N(CCCl)CCCl)NCCCO1 (stereo not drawn) [CTX, cyclophosphamide, reference compound]
Body weight (without tumor) D1 [5]: 21.8 g | Body weight (without tumor) D8 [5]: 26.8 g | Tumor weight on Day 8 [5]: 0.60 ± 0.18 g | TGI ([5]; tumor weight, Day 8): 68.8* % | Body weight (without tumor) at D8 ([2]; 30 mg/kg I.V., D1-7): 21.22 g | TGI ([2]; 30 mg/kg I.V., D1-7): 79.00% | Tumor weight ([2]; 30 mg/kg I.V., D1-7): 0.43 g

CNCc1ccc(-c2[nH]c3cc(F)cc4c3c2CCNC4=O)cc1 [Rucaparib, rucaparib, reference compound]
Cell Death Rate/% 1 (H69; Example 10, Table 11): 7.51% | Cell Death Rate/% 2 (H69; Example 10, Table 11): 7.3% | Cell Death Rate/% 3 (H69; Example 10, Table 11): 8.11% | Cell Death Rate/% mean (H69; Example 10, Table 11): 7.64% | Cell Death Rate/% 1 (H526; Example 10, Table 11): 6.73% | Cell Death Rate/% 2 (H526; Example 10, Table 11): 6.57% | Cell Death Rate/% 3 (H526; Example 10, Table 11): 6.19% | Cell Death Rate/% mean (H526; Example 10, Table 11): 6.50% | Cell Death Rate/% 1 (H446; Example 10, Table 11): 14% | Cell Death Rate/% 2 (H446; Example 10, Table 11): 13.79% | Cell Death Rate/% 3 (H446; Example 10, Table 11): 14.48% | Cell Death Rate/% mean (H446; Example 10, Table 11): 14.09%

COc1cccc2c1C(=O)c1c(O)c3c(c(O)c1C2=O)C[C@@](O)(C(C)=O)C[C@@H]3O[C@H]1C[C@H](N)[C@H](O)[C@H](C)O1 [Daunorubicin, daunorubicin, reference compound]
T/C (MV-4-11 cells [6]; D11): 38% | TGI (MV-4-11 cells [6]; D11): 62% | Tumor volume D0 (MV-4-11 cells [6]; in mm³): 152.9 | Tumor volume D11 (MV-4-11 cells [6]; in mm³): 1167.3

Nc1nc2[nH]cc(CCc3ccc(C(=O)N[C@@H](CCC(=O)O)C(=O)O)cc3)c2c(=O)[nH]1 [Pemetrexed disodium, pemetrexed disodium, reference compound]
Body weight (without tumor) D0 [7]: 24.0 g | Body weight (without tumor) D14 [7]: 15.3 g | RTV at D14 [7]: 9.14 ± 2.86 | Tumor volume D0 [7]: 138 ± 33 mm^3 | Tumor volume D14 [7]: 1209 ± 244 mm^3 | T/C ([7]; D14): 43.3* %
